Source: US20050282757A1, “Peptide boronic acid compounds useful in anticoagulation” (Trigen Limited, priority 2002, published 2005)
“And” between values parts separate entries of the source, which are not always exact repeats. Identical values can stand only once. “Also recorded” adds a separate entry of the source. Marks after values point to notes of the source that are not given here.

Assays:
[1] = Comparative storage stability of sodium and calcium salts (Example 49); type: physicochemical; settings: for Tri50c (w/w %, LOD corr.): corrected for loss on drying
Excerpt: In both studies the active pharmaceutical ingredient was stored in grip sealed double bags within a PE/PP screw cap closed cylinder.

thrombin time [2] = assay: Intraduodenal absorption in rat, thrombin time (Examples 42 and 44); type: in vivo, male Wistar rats; design: Mean increase in thrombin time / Thrombin time increase: unit not given here; settings: for Group mean thrombin time (s ± sd): 20 mg/kg intraduodenal
Procedure: • Place 10 mg of the relevant compound in an Eppendorf cup • Add 0.5 mL ethanol and shake for 10 minutes • Sonicate for 10 minutes • Add 1.5 mL of buffer • Shake for additional 15 minutes • Resulting target concentration: 5 mg/mL B. Intraduodenal Studies
The intraduodenal studies were performed using male Wistar rats, approximately 8 weeks of age and weighing between 250 and 300 g.
Food was withheld overnight prior to dosing and returned approximately 2 hours post-dose. Water was available ad libitum.
Animals were anaesthetised using gaseous halothane. A small incision was made in the abdomen and the duodenum located. Each animal received a single administration of control or test article by injection directly into the duodenum, using a constant dose volume of 4 mL/kg. Following administration the incision was closed using surgical staples.
Individual dose volumes were based on individual body weights, obtained on the day of dosing. Treatments employed for the study were as follows:
(§1) Approximately 0.6 mL of blood was collected via a tail vein into 3.8% tri sodium citrate tubes approximately 48 hours prior to dosing and again at 0.5, 1, 2, 4 and 8 hours post-dose.
(§2) Plasma was prepared by centrifugation at […] for 10 minutes at 4° C. Plasma was stored frozen (nominally −20° C.) prior to analysis in an automated coagulometer.
The thrombin times determined in example 42 were analysed to determine the standard deviation for increase in thrombin time, expressed as a percentage of the mean value (this is sometimes called the ‘coefficient of variation’).

Thrombin Time (TT) = assay: Oral administration of TGN 167 tablets to healthy male subjects (Example 47); type: in vivo, human
Procedure: TGN 167 tablets described above were administered via the oral route to 10 healthy male subjects as single doses (randomised double blind placebo controlled study). The group consisted of 10 healthy male volunteers, 9 of whom received active compound and one of whom received placebo. An amendment was introduced for the last panel, allowing 15 subjects (instead of 9) to receive a 600 mg dose. The interval between each dose of TGN 167 was one week minimum. The allocation of the placebo was such that each volunteer would only receive placebo once during the course of the study.
Orally administered doses were: 75 mg (one tablet), 150 mg (two tablets), 300 mg (four tablets) and 600 mg (eight tablets).

thrombin time [3] = assay: Oral absorption in rat, thrombin time (Example 43); type: in vivo, male Wistar rats; settings: 20 mg/kg oral gavage
Procedure: The procedure of Example 42 was followed.
The per-oral studies were performed using male Wistar rats, approximately 8 weeks of age and weighing between 250 and 300 g.
Food was withheld overnight prior to dosing and returned approximately 2 hours post-dose. Water was available adlibitum.
Each animal received a single administration of control or test article by oral gavage, using a constant dose volume of 4 mL/kg.
Individual dose volumes were based on individual body weights, obtained on the day of dosing.
as §1, §2

[4] = Stability in enteric-coated hard gelatin capsules, HPLC-PDA (Example 41); type: physicochemical; settings: for Amount of Tri50c: 10 mg content in 10 ml
Procedure: TRI 50c-standard (free acid) was stored in a desiccator over phosphorus pentoxide for 2 days for drying. Afterwards, the reference standard was weighed in a volumetric flask and dissolved in a mixture of acetonitrile and water (25/75 v/v %). Aliquots of the resulting solution (ST 1A) were diluted successively with water as shown in the dilution scheme of table 4.
The stored capsules of every batch at corresponding climatic condition were removed and 10 mg of the content was weighed in a 10 ml volumetric flask and dissolved in 10 ml of a mixture of acetonitrile/water (25/75 v/v %). These solutions were injected for impurity profile analysis and for quantification respectively.
The quantitative evaluation and the impurity profile analysis were performed using an HPLC-PDA method. The processing wavelength was set as 258 nm.

thrombin time and APTT = assay: Oral administration in dog, PK/PD (Example 45)
Procedure: Three female and three male dogs were used for each leg of the study. The weight range of the dogs was 8-18 kg.
The PD was measured as thrombin time and APTT using an automated coagulometer. Plasma concentrations were measured using an LCMS/MS method.
The dose was tailored on an individual basis for each dog.

[5] = individual rats dosed intraduodenally, listed as Ca Salt, hemicalcium salt, in s
[6] = capsules (no blister) 40° C./75% r.h.
[7] = capsules in blister 25° C./60% r.h.
[8] = capsules in blister 40° C./75% r.h.

COCCC[C@H](NC(=O)[C@@H]1CCCN1C(=O)[C@@H](Cc1ccccc1)NC(=O)OCc1ccccc1)B([O-])O.COCCC[C@H](NC(=O)[C@@H]1CCCN1C(=O)[C@@H](Cc1ccccc1)NC(=O)OCc1ccccc1)B([O-])O.[Ca+2] [TRI 50c calcium salt, Cbz-(R)-Phe-(S)-Pro-(R)-Mpg-B(OH)2 hemicalcium salt]
Color ([1]; T = 0): white | TRI 50c (% peak area) ([1]; T = 0): 99.4 % peak area | Tri50c (w/w %, LOD corr.) ([1]; T = 0): 99.7 w/w % | Appearance ([1]; T = 0, hemicalcium salt): powdery,; also recorded: odourless | Appearance ([1]; T = 1, 25° C./60% r.h.): powdery | Color ([1]; T = 1, 25° C./60% r.h.): white | TRI 50c (% peak area) ([1]; T = 1, 25° C./60% r.h.): 98.3 % peak area | Tri50c (w/w %, LOD corr.) ([1]; T = 1, 25° C./60% r.h.): 101.5 w/w % | Appearance ([1]; T = 1, 40° C./75% r.h.): powdery | Color ([1]; T = 1, 40° C./75% r.h.): white | TRI 50c (% peak area) ([1]; T = 1, 40° C./75% r.h.): 95.2 % peak area | Tri50c (w/w %, LOD corr.) ([1]; T = 1, 40° C./75% r.h.): 100.6 w/w % | Appearance ([1]; T = 1, −20° C.): powdery | Color ([1]; T = 1, −20° C.): white | TRI 50c (% peak area) ([1]; T = 1, −20° C.): 99.1 % peak area | Tri50c (w/w %, LOD corr.) ([1]; T = 1, −20° C.): 102.7 w/w % | Appearance ([1]; T = 3, 25° C./60% r.h.): powdery | Color ([1]; T = 3, 25° C./60% r.h.): white | TRI 50c (% peak area) ([1]; T = 3, 25° C./60% r.h.): 97.5 % peak area | Tri50c (w/w %, LOD corr.) ([1]; T = 3, 25° C./60% r.h.): 104.3 w/w % | Appearance ([1]; T = 3, 40° C./75% r.h.): powdery | Color ([1]; T = 3, 40° C./75% r.h.): white | TRI 50c (% peak area) ([1]; T = 3, 40° C./75% r.h.): 71.2 % peak area | Tri50c (w/w %, LOD corr.) ([1]; T = 3, 40° C./75% r.h.): 82.0 w/w % | Appearance ([1]; T = 3, −20° C.): powdery | Color ([1]; T = 3, −20° C.): white | TRI 50c (% peak area) ([1]; T = 3, −20° C.): 99.2 % peak area | Tri50c (w/w %, LOD corr.) ([1]; T = 3, −20° C.): 103.0 w/w % | TRI 50c (% peak area) ([1]; T = 12, 25° C./60% r.h.): 96.9 % peak area | Tri50c (w/w %, LOD corr.) ([1]; T = 12, 25° C./60% r.h.): 94.8 w/w % | Group mean thrombin time (s ± sd) (thrombin time [2]; 0.5 hour): 42.0 ± 6.74 s | Group mean thrombin time (s ± sd) (thrombin time [2]; 1 hour): 34.0 ± 1.89 s | Group mean thrombin time (s ± sd) (thrombin time [2]; 2 hour): 22.6 ± 5.10 s | Group mean thrombin time (s ± sd) (thrombin time [2]; 4 hour): 24.4 ± 2.41 s | Group mean thrombin time (s ± sd) (thrombin time [2]; 8 hour): 22.4 ± 1.73 s | Group mean thrombin time (s ± sd) (thrombin time [2]; −48 hour (pre-dose)): 21.6 ± 1.77 s | Mean increase in thrombin time (thrombin time [2]; 0.5 h minus 0 h, intraduodenal): 20.50 | Thrombin time, 0 h (thrombin time [2]; [5]): 21.97 and 18.75 and 23.57 and 21.57 | Thrombin time, 0.5 h (thrombin time [2]; [5]): 35.32 and 45.98 and 37.27 and 49.30 | Thrombin time increase (thrombin time [2]; individual rats, 0.5 h minus 0 h, listed as Ca Salt, hemicalcium salt): 13.35 and 27.23 and 13.70 and 27.73 | safety assessments (Thrombin Time (TT); oral 75, 150, 300, 600 mg): No clinically significant findings | time after administration at which all TT had returned to baseline (Thrombin Time (TT); oral tablets): 10 h | effect on thrombin time (TT) (Thrombin Time (TT); oral tablets 75-600 mg): dose-related increase in the Thrombin Time (TT) | adverse clinical events (Thrombin Time (TT); study period of 24 hours, any dose): no adverse clinical events of either a general or cardiovascular nature | Group mean thrombin times (s ± sd) (thrombin time [3]; 0.5 hour): 25.9 ± 3.05 s | Group mean thrombin times (s ± sd) (thrombin time [3]; 1 hour): 25.7 ± 1.94 s | Group mean thrombin times (s ± sd) (thrombin time [3]; 2 hour): 24.3 ± 0.98 s | Group mean thrombin times (s ± sd) (thrombin time [3]; 4 hour): 25.0 ± 1.31 s | Group mean thrombin times (s ± sd) (thrombin time [3]; 8 hour): 22.9 ± 3.46 s | Group mean thrombin times (s ± sd) (thrombin time [3]; −48 hour (pre-dose)): 23.4 ± 1.25 s | Benzaldeh. % Area in impurity profile [4, 6]: 3.64 % Area | Imp.I % Area in impurity profile [4, 6]: 0.84 % Area | Amount of Tri50c [4, 6]: 780.097 µg/mL | Benzaldeh. % Area in impurity profile [4, 7]: 1.29 % Area | Amount of Tri50c [4, 7]: 930.903 µg/mL | Benzaldeh. % Area in impurity profile [4, 8]: 2.37 % Area | Amount of Tri50c [4, 8]: 786.223 µg/mL | Purity (HPLC % Area) T1 ([4]; capsules in blister, 1.5 month 25° C./60% r.h., hemicalcium salt): 98.0 HPLC % Area | Purity (HPLC % Area) T1 ([4]; capsules in blister, 1.5 month 25° C./60% r.h., listed as TRI50C Ca Salt, hemicalcium salt): 98.02 HPLC % Area | Purity (HPLC % Area) T1 ([4]; capsules in blister, 1.5 month 40° C./75% r.h., hemicalcium salt): 97.2 HPLC % Area | Purity (HPLC % Area) T1 ([4]; capsules in blister, 1.5 month 40° C./75% r.h., listed as TRI50C Ca Salt, hemicalcium salt): 97.19 HPLC % Area | Purity (HPLC % Area) T1 ([4]; capsules without blister, 1.5 month 40° C./75% r.h., hemicalcium salt): 95.0 HPLC % Area | Purity (HPLC % Area) T1 ([4]; capsules without blister, 1.5 month 40° C./75% r.h., listed as TRI50C Ca Salt, hemicalcium salt): 94.96 HPLC % Area | Purity (HPLC % Area) T0 ([4]; purity of the batch before storage, hemicalcium salt): 99.2^2) HPLC % Area and 99.2^2 HPLC % Area | mean thrombin clotting time 8 hours post dose (thrombin time and APTT): 20.2 s | time of peak thrombin time post dose (thrombin time and APTT): three hours post dose | mean APTT at peak (thrombin time and APTT; 3 hours following administration, from 14.5 seconds): 18 s | mean thrombin clotting time at peak (C max) (thrombin time and APTT; base line 15 seconds (calcium salt), 15.4 seconds (TRI 50c)): 80.5 s | tolerance (thrombin time and APTT; enterically coated gelatine capsules): tolerated well with no adverse events | estimated bioavailability in some animals (thrombin time and APTT; estimated from thrombin clotting times): ≤ 50% | mean estimated bioavailability (thrombin time and APTT; estimated from thrombin clotting times, including two lower responders): 25% | peak thrombin clotting times achieved by all dogs (thrombin time and APTT; individual dogs): up to 148 seconds
